Like-named read-outs stand apart in the source and are kept apart here.
Legend:
[1] = target: recombinant human Myt1 (full length PKMYT1) (Homo sapiens (Human), UniProt Q99640); assay: Recombinant human Myt1 kinase assay (ADP-Glo); format: biochemical; details: 10 μM ATP
Outline: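 ADP-Glo luminescence measured ATP hydrolysis by recombinant full-length PKMYT1 (18 nM) after 60 min at 30 °C with 10 μM ATP. Compounds in 0.5% DMSO were added to the enzyme 15 min before ATP, at 22 °C, in HEPES/MgCl2/MnCl2 buffer. IC50 and percent maximal inhibition were derived.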

[2] = system: PKMYT1 (CDK1 pThr14) in FUOV1 cells; assay: PKMYT1 cell-based activity assay, CDK1 pThr14 AlphaLISA in FUOV1 cells; details: 2 h, read-out: FUOV-1 CDK1 pThr14 IC50
Outline: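 IC50 was derived from AlphaLISA signal (excitation 680 nm, emission 615 nm) for phospho-Thr14 CDK1 in lysates. The detection antibodies were rabbit anti-pThr14 and mouse anti-total CDK1, each at 5 nM. FUOV1 ovarian cells were exposed to compound for 2 hours before lysis.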

Chain of recombinant human Myt1 (full length PKMYT1) (Q99640 whole entry): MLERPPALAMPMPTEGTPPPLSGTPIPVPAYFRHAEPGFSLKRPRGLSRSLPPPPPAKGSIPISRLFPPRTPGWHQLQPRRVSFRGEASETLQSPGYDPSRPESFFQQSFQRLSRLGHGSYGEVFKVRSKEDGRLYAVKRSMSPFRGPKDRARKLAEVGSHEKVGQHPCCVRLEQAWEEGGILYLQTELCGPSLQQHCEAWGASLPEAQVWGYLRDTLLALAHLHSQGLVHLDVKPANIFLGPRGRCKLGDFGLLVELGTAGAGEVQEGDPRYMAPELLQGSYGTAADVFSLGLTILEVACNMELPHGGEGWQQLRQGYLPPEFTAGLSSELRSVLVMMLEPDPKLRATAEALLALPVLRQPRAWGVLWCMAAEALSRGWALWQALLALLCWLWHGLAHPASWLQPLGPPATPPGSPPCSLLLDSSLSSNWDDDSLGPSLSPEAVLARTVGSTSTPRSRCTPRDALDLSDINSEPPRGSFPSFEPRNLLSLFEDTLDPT

| SMILES | IC50 [1] | IC50 ([2]; 2 h incubation) | IC50 ([2]; 2 h compound incubation) | IC50 ([2]; 2 hours with compound) |
| --- | --- | --- | --- | --- |
| Cc1ccc2[nH]ncc2c1-c1cc(-c2ccnc(OCCc3ccccn3)n2)nc(C(N)=O)c1N [Compound 239] | 0.004 µM | 0.903 µM | – | – |
| COCCNc1nccc(-c2cc(-c3c(C)ccc4[nH]ncc34)c(N)c(C(N)=O)n2)n1 [Compound 214, 3-amino-6-(2-((2-methoxyethyl)amino)pyrimidin-4-yl)-4-(5-methyl-1H-indazol-4-yl)picolinamide] | 0.005 µM | 0.444 µM | – | – |
| Cc1ccc(NC(=O)C2(C)CC2)c(-c2nc(C(N)=O)c(N)c(-c3c(C)ccc4[nH]ncc34)n2)c1 [Compound 437] | 0.008 µM | – | 0.059 µM | – |
| Cc1ccc2[nH]ncc2c1-c1cc(-c2ccnc(N)c2)nc(C(N)=O)c1N [Compound 189] | 0.021 µM | 1.22 µM | – | – |
| Cc1ccc2[nH]ncc2c1-c1nc(-c2ccccc2NC(=O)c2cccc(F)c2)nc(C(N)=O)c1N [Compound 460] | 0.01 µM | – | 0.825 µM | – |
| CNS(=O)(=O)c1ccccc1-c1nc(C(N)=O)c(N)c(-c2c(C)ccc3[nH]ncc23)n1 [Compound 795] | 2.52 µM | – | – | > 10 µM |
| Cc1ccc2[nH]ncc2c1-c1c(N)c(C(N)=O)cc2c1oc1ccccc12 [Compound 418, 3-amino-4-(5-methyl-1H-indazol-4-yl)dibenzo[b,d]furan-2-carboxamide] | 0.027 µM | – | 1.33 µM | – |
| Cc1ccc2[nH]ncc2c1-c1cc(-c2ccnc(OCc3ncccn3)n2)nc(C(N)=O)c1N [Compound 235] | 0.007 µM | 0.039 µM | – | – |
| COC[C@H](C)Oc1nccc(-c2cc(-c3c(C)ccc4[nH]ncc34)c(N)c(C(N)=O)n2)n1 [Compound 203] | 0.011 µM | 0.332 µM | – | – |
| Cc1ccc(O)c(C)c1-c1cc(-c2ccccn2)nc(C(N)=O)c1N [Compound 19] | 0.004 µM | 0.014 µM | – | – |
| Cc1ccc2[nH]ncc2c1-c1nc(-c2cc(F)cnc2N[C@H]2CC[C@@](O)(C(F)(F)F)CC2)nc(C(N)=O)c1N [Compound 834] | 0.021 µM | – | – | 0.49 µM |
| Cc1ccc2[nH]ncc2c1-c1nc(-c2cc(F)ccc2NS(=O)(=O)C2CC2)nc(C(N)=O)c1N [Compound 481] | 0.002 µM | – | 0.083 µM | – |
| Cc1ccc(O)c(C)c1-c1cc(-c2ncccn2)cc(C(N)=O)c1N [Compound 78] | 0.009 µM | 0.326 µM | – | – |
| Cc1ccc2[nH]ncc2c1-c1nc(-c2cc(F)c(F)cc2NC(=O)C2(C)CC2)nc(C(N)=O)c1N [Compound 446] | 0.008 µM | – | 0.008 µM | – |
| COc1cc(C)cc(-c2nc(C(N)=O)c(N)c(-c3c(C)ccc4[nH]ncc34)n2)c1 [Compound 143] | 0.023 µM | 1.47 µM | – | – |
| Cc1ccc2[nH]ncc2c1-c1nc(-c2ccccc2NCC(F)F)nc(C(N)=O)c1N [Compound 400, 5-amino-2-(2-((2,2-difluoroethyl)amino)phenyl)-6-(5-methyl-1H-indazol-4-yl)pyrimidine-4-carboxamide] | 0.002 µM | – | 0.036 µM | – |

| SMILES | IC50 [1] | IC50 ([2]; 2 h incubation) | IC50 ([2]; 2 h compound incubation) | IC50 ([2]; 2 hours with compound) |
| --- | --- | --- | --- | --- |
| Cc1ccc2[nH]ncc2c1-c1nc(-c2ccccc2NCC2(C)CC2)nc(C(N)=O)c1N [Compound 452] | 0.016 µM | – | 0.124 µM | – |
| Cc1cc(-c2nc(C(N)=O)c(N)c(-c3cc(O)ccc3C)n2)cc(C)n1 [Compound 11] | 0.054 µM | – | – | – |
| Cc1ccc(O)cc1-c1nc(C2CCC(F)(F)CC2)nc(C(N)=O)c1N [Compound 41, 5-amino-2-(4,4-difluorocyclohexyl)-6-(5-hydroxy-2-methylphenyl)pyrimidine-4-carboxamide] | 0.827 µM | – | – | – |
| Cc1ccc2[nH]ncc2c1-c1nc(-c2cccc3ccsc23)nc(C(N)=O)c1N [Compound 379] | 0.014 µM | – | – | – |
| Cc1ccc2[nH]ncc2c1-c1nc(-c2ccc(C#N)s2)nc(C(N)=O)c1N [Compound 158] | 0.021 µM | – | – | – |
| Cc1ccc2[nH]ncc2c1-c1cc(-c2ccnc(N3CCC(O)(c4ccccc4)CC3)n2)nc(C(N)=O)c1N [Compound 349] | 0.138 µM | – | – | – |
| Cc1ccc2[nH]ncc2c1-c1nc(-c2ccccc2N)nc(C(N)=O)c1N [Compound 319] | 0.048 µM | – | – | – |
| Cc1ccc(O)cc1-c1nc(-c2ccn(C)n2)nc(C(N)=O)c1N [Compound 35] | 0.167 µM | – | – | – |
| Cc1ccc2[nH]ncc2c1-c1cc(-c2cccc(OCC3(N)CC3)n2)nc(C(N)=O)c1N (atropisomer, axis not shown) [Compound 382] | 0.003 µM | – | – | – |
| Cc1ccc2[nH]ncc2c1-c1cc(-c2cccc(OC(C)c3ccccn3)n2)nc(C(N)=O)c1N (stereo not drawn) [Compound 252] | 0.026 µM | – | – | – |
| Cc1ccc2[nH]ncc2c1-c1nc(-c2cccc3c2NCC3)nc(C(N)=O)c1N [Compound 386] | 0.029 µM | – | – | – |
| Cc1ccc2[nH]ncc2c1-c1nc(-c2ccnc(N3CCN(C)CC3)c2)nc(C(N)=O)c1N [Compound 154] | 0.03 µM | – | – | – |
| Cc1ccc(O)c(C)c1-c1cc(C(=O)O)nc(C(N)=O)c1N [Compound 53, 5-amino-6-carbamoyl-4-(3-hydroxy-2,6-dimethylphenyl)picolinic acid] | 1.83 µM | – | – | – |
| Cc1ccc2[nH]ncc2c1-c1nc(-c2cccc(N3CCCC3)c2)nc(C(N)=O)c1N [Compound 142] | 0.054 µM | – | – | – |
| COCCOc1cccc(-c2nc(C(N)=O)c(N)c(-c3c(C)ccc4[nH]ncc34)n2)c1 [Compound 286] | 0.041 µM | – | – | – |

Reference: patent publication US20250304537A1 (Repare Therapeutics Inc., priority 2022, published 2025)
